Test results published in PubChem BioAssay (NCI).
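Method: 48-hour compound exposure of cells in 96-well plates, five concentrations, linear interpolation of endpoints. GI50 = concentration required for 50% inhibition of growth. Definition used: TGI = concentration required for complete inhibition of growth.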

Tests used:
Experiment in all cases: NCI anticancer screen, dose series, 48 h
OVCAR-5 ovarian = test system: OVCAR-5 ovarian
U251 CNS = test system: U251 CNS
A549 NSCLC = test system: A549 NSCLC
A498 renal = test system: A498 renal
MDA-MB-231 breast = test system: MDA-MB-231 breast
OVCAR-4 ovarian = test system: OVCAR-4 ovarian
EKVX NSCLC = test system: EKVX NSCLC
UO-31 renal = test system: UO-31 renal
KM12 colon = test system: KM12 colon
SNB-75 CNS = test system: SNB-75 CNS
MDA-MB-435 = test system: MDA-MB-435
IGROV1 ovarian = test system: IGROV1 ovarian
SF-295 CNS = test system: SF-295 CNS
CCRF-CEM leukemia = test system: CCRF-CEM leukemia
OVCAR-8 ovarian = test system: OVCAR-8 ovarian
SN12C renal = test system: SN12C renal
SK-MEL-5 melanoma = test system: SK-MEL-5 melanoma
MOLT-4 leukemia = test system: MOLT-4 leukemia
HCT-116 colon = test system: HCT-116 colon
SNB-19 CNS = test system: SNB-19 CNS
HOP-62 NSCLC = test system: HOP-62 NSCLC
NCI-H226 lung = test system: NCI-H226 lung
NCI/ADR-RES ovarian = test system: NCI/ADR-RES ovarian
ACHN renal = test system: ACHN renal
HT29 colon = test system: HT29 colon
MALME-3M melanoma = test system: MALME-3M melanoma
786-0 renal = test system: 786-0 renal
NCI-H23 lung = test system: NCI-H23 lung
T-47D breast = test system: T-47D breast
HOP-92 NSCLC = test system: HOP-92 NSCLC
HS 578T breast = test system: HS 578T breast
RXF 393 renal = test system: RXF 393 renal
TK-10 renal = test system: TK-10 renal
SF-268 CNS = test system: SF-268 CNS
M14 melanoma = test system: M14 melanoma
BT-549 breast = test system: BT-549 breast
PC-3 prostate = test system: PC-3 prostate
SF-539 CNS = test system: SF-539 CNS
CAKI-1 renal = test system: CAKI-1 renal
RPMI-8226 leukemia = test system: RPMI-8226 leukemia
K-562 leukemia = test system: K-562 leukemia
COLO 205 colon = test system: COLO 205 colon
HCT-15 colon = test system: HCT-15 colon
SK-MEL-28 melanoma = test system: SK-MEL-28 melanoma
DU-145 prostate = test system: DU-145 prostate
SW-620 colon = test system: SW-620 colon
NCI-H522 lung = test system: NCI-H522 lung
SK-MEL-2 melanoma = test system: SK-MEL-2 melanoma
MCF7 breast = test system: MCF7 breast
SR leukemia = test system: SR leukemia
UACC-62 melanoma = test system: UACC-62 melanoma
UACC-257 melanoma = test system: UACC-257 melanoma
HL-60(TB) leukemia = test system: HL-60(TB) leukemia
NCI-H460 lung = test system: NCI-H460 lung
HCC-2998 colon = test system: HCC-2998 colon

Q: What does the source list for `CNC(=O)c1c(NC(=O)c2ccccc2C(F)(F)F)sc2c1CCC(=O)C2`?
A: GI50 (OVCAR-5 ovarian): 1.48 µM; TGI (OVCAR-5 ovarian): 5.58 µM; GI50 (U251 CNS): 0.817 µM; TGI (U251 CNS): > 100 µM; GI50 (A549 NSCLC): 3.28 µM; TGI (A549 NSCLC): > 100 µM; GI50 (A498 renal): 2.09 µM; TGI (A498 renal): 6.24 µM; GI50 (MDA-MB-231 breast): 2 µM; TGI (MDA-MB-231 breast): 4.78 µM; GI50 (OVCAR-4 ovarian): 1.58 µM; TGI (OVCAR-4 ovarian): 4 µM; GI50 (EKVX NSCLC): 1.99 µM; TGI (EKVX NSCLC): 37.6 µM; GI50 (UO-31 renal): 0.574 µM; TGI (UO-31 renal): 1.95 µM; GI50 (KM12 colon): 4.29 µM; TGI (KM12 colon): 16.8 µM; GI50 (SNB-75 CNS): 1.54 µM; TGI (SNB-75 CNS): 6.82 µM; GI50 (MDA-MB-435): 2.72 µM; TGI (MDA-MB-435): 11.2 µM; GI50 (IGROV1 ovarian): 1.87 µM; TGI (IGROV1 ovarian): 17.8 µM; GI50 (SF-295 CNS): 2.51 µM; TGI (SF-295 CNS): 7.63 µM; GI50 (CCRF-CEM leukemia): 0.348 µM; TGI (CCRF-CEM leukemia): > 100 µM; GI50 (OVCAR-8 ovarian): 1.41 µM; TGI (OVCAR-8 ovarian): > 100 µM; GI50 (SN12C renal): 2.9 µM; TGI (SN12C renal): > 100 µM; GI50 (SK-MEL-5 melanoma): 1.7 µM; TGI (SK-MEL-5 melanoma): 3.72 µM; GI50 (MOLT-4 leukemia): 1.2 µM; TGI (MOLT-4 leukemia): > 100 µM; GI50 (HCT-116 colon): 0.384 µM; TGI (HCT-116 colon): 12.1 µM; GI50 (SNB-19 CNS): 3.18 µM; TGI (SNB-19 CNS): > 100 µM; GI50 (HOP-62 NSCLC): 3.44 µM; TGI (HOP-62 NSCLC): > 100 µM; GI50 (NCI-H226 lung): 2.46 µM; TGI (NCI-H226 lung): 8.01 µM; GI50 (NCI/ADR-RES ovarian): 1.97 µM; TGI (NCI/ADR-RES ovarian): 13.4 µM; GI50 (ACHN renal): 0.397 µM; TGI (ACHN renal): 2.03 µM; GI50 (HT29 colon): 1.45 µM; TGI (HT29 colon): 9.66 µM; GI50 (MALME-3M melanoma): 2.26 µM; TGI (MALME-3M melanoma): 6.33 µM; GI50 (786-0 renal): 3.8 µM; TGI (786-0 renal): > 100 µM; GI50 (NCI-H23 lung): 1.33 µM; TGI (NCI-H23 lung): 7.61 µM; GI50 (T-47D breast): 0.528 µM; TGI (T-47D breast): 4.98 µM; GI50 (HOP-92 NSCLC): 1.2 µM; TGI (HOP-92 NSCLC): 3.39 µM; GI50 (HS 578T breast): 3.01 µM; TGI (HS 578T breast): > 100 µM; GI50 (RXF 393 renal): 1.12 µM; TGI (RXF 393 renal): 4.2 µM; GI50 (TK-10 renal): 1.54 µM; TGI (TK-10 renal): > 100 µM; GI50 (SF-268 CNS): 3.19 µM; TGI (SF-268 CNS): > 100 µM; GI50 (M14 melanoma): 2.51 µM; TGI (M14 melanoma): 33.5 µM; GI50 (BT-549 breast): 2.54 µM; TGI (BT-549 breast): > 100 µM; GI50 (PC-3 prostate): 0.426 µM; TGI (PC-3 prostate): 14.6 µM; GI50 (SF-539 CNS): 0.678 µM; TGI (SF-539 CNS): 2.22 µM; GI50 (CAKI-1 renal): 0.464 µM; TGI (CAKI-1 renal): 2.55 µM; GI50 (RPMI-8226 leukemia): 0.278 µM; GI50 (K-562 leukemia): 0.417 µM; TGI (K-562 leukemia): > 100 µM; GI50 (COLO 205 colon): 1.29 µM; TGI (COLO 205 colon): 3.12 µM; GI50 (HCT-15 colon): 0.37 µM; TGI (HCT-15 colon): 10.5 µM; GI50 (SK-MEL-28 melanoma): 3.59 µM; TGI (SK-MEL-28 melanoma): 54.9 µM; GI50 (DU-145 prostate): 4.45 µM; TGI (DU-145 prostate): > 100 µM; GI50 (SW-620 colon): 0.363 µM; TGI (SW-620 colon): 12.2 µM; GI50 (NCI-H522 lung): 0.347 µM; TGI (NCI-H522 lung): 2.33 µM; GI50 (SK-MEL-2 melanoma): 2.77 µM; TGI (SK-MEL-2 melanoma): 7.6 µM; GI50 (MCF7 breast): 1.91 µM; TGI (MCF7 breast): 11.9 µM; GI50 (SR leukemia): 0.538 µM; TGI (SR leukemia): > 100 µM; GI50 (UACC-62 melanoma): 1.45 µM; TGI (UACC-62 melanoma): 3.91 µM; GI50 (UACC-257 melanoma): 2.76 µM; TGI (UACC-257 melanoma): 8.28 µM; GI50 (HL-60(TB) leukemia): 0.339 µM; TGI (HL-60(TB) leukemia): 13.4 µM; GI50 (NCI-H460 lung): 3.27 µM; TGI (NCI-H460 lung): > 100 µM; GI50 (HCC-2998 colon): 2.96 µM; TGI (HCC-2998 colon): 15.2 µM
